Reference: the supplement of paper PMC8741786
Converted amounts (≈) assume the structure as drawn.

Tests used:
Assay in all cases: minimum inhibitory concentration (ETEST)
Neisseria bacilliformis = conditions: isolate id (sample isolate): Co000780_5; population: general population; antibiotic use in previous 6 months: No
Description: (§1)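 Oropharyngeal Neisseria isolates from MSM and employees in Belgium were identified to species by MALDI-TOF MS. MICs of azithromycin, ceftriaxone and ciprofloxacin were determined by ETEST on GC agar after 24 h at 36.5 °C and 5-7% CO2, in mg/L. Values beyond the strip range are reported as >256 (azithromycin) or <0.016 (ceftriaxone); isolates that did not grow are NA.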

Neisseria cinerea = conditions: population: general population, antibiotic use in previous 6 months: No
Description: as §1

Neisseria elongata = conditions: population: general population, antibiotic use in previous 6 months: No
Description: as §1

Neisseria gonorrhoeae = conditions: isolate id (sample isolate): 19113052_3; population: MSM; antibiotic use in previous 6 months: No
Description: as §1

Neisseria lactamica = conditions: population: general population, antibiotic use in previous 6 months: No
Description: as §1

Neisseria mucosa/macacae = tested on: Neisseria mucosa/macacae
Description: as §1

[1] = tested on: Neisseria subflava/flavescens/perflava
Description: as §1

O=C(O)c1cn(C2CC2)c2cc(N3CCNCC3)c(F)cc2c1=O [ciprofloxacin]
Conditions | minimum inhibitory concentration [µg/mL]
Neisseria bacilliformis | 0.125 (≈ 0.377 µM)
Neisseria gonorrhoeae | 2 (≈ 6.04 µM)

Conditions | minimum inhibitory concentration [µg/mL]
Neisseria cinerea, isolate id (sample isolate): Co000769_3 | 0.006 (≈ 0.0181 µM)
Neisseria cinerea, isolate id (sample isolate): Co000776_4 | 0.032 (≈ 0.0966 µM)
Neisseria cinerea, isolate id (sample isolate): Co000776_5 | 0.032 (≈ 0.0966 µM)
Neisseria cinerea, isolate id (sample isolate): Co000782_1 | 0.012 (≈ 0.0362 µM)
Neisseria elongata, isolate id (sample isolate): Co000767_3 | 0.004 (≈ 0.0121 µM)
Neisseria elongata, isolate id (sample isolate): Co000780_1 | 0.004 (≈ 0.0121 µM)
Neisseria elongata, isolate id (sample isolate): Co000783_4 | 0.023 (≈ 0.0694 µM)
Neisseria lactamica, isolate id (sample isolate): Co000761_1 | 0.19 (≈ 0.573 µM)
Neisseria lactamica, isolate id (sample isolate): Co000771_1 | 0.064 (≈ 0.193 µM)

Conditions | minimum inhibitory concentration [µg/mL]
Neisseria mucosa/macacae, isolate id (sample isolate): 19041762_2, population: MSM, antibiotic use in previous 6 months: Yes | 0.016 (≈ 0.0483 µM)
Neisseria mucosa/macacae, isolate id (sample isolate): 19051904_1, population: MSM, antibiotic use in previous 6 months: Yes | 0.25 (≈ 0.754 µM)
Neisseria mucosa/macacae, isolate id (sample isolate): 19052394_2, population: MSM, antibiotic use in previous 6 months: Yes | 0.012 (≈ 0.0362 µM)
Neisseria mucosa/macacae, isolate id (sample isolate): 19062968_1, population: MSM, antibiotic use in previous 6 months: Yes | 6 (≈ 18.1 µM)
Neisseria mucosa/macacae, isolate id (sample isolate): 19081774_2, population: MSM, antibiotic use in previous 6 months: No | 0.016 (≈ 0.0483 µM)
Neisseria mucosa/macacae, isolate id (sample isolate): 19111422_4, population: MSM, antibiotic use in previous 6 months: No | 0.016 (≈ 0.0483 µM)
Neisseria mucosa/macacae, isolate id (sample isolate): 19111422_7, population: MSM, antibiotic use in previous 6 months: No | 0.016 (≈ 0.0483 µM)
Neisseria mucosa/macacae, isolate id (sample isolate): Co000770_5, population: general population, antibiotic use in previous 6 months: No | 0.023 (≈ 0.0694 µM)
Neisseria mucosa/macacae, isolate id (sample isolate): Co000771_4, population: general population, antibiotic use in previous 6 months: No | 0.016 (≈ 0.0483 µM)
Neisseria mucosa/macacae, isolate id (sample isolate): Co000772_3, population: general population, antibiotic use in previous 6 months: No | 0.006 (≈ 0.0181 µM)
Neisseria mucosa/macacae, isolate id (sample isolate): Co000773_3, population: general population, antibiotic use in previous 6 months: No | 0.006 (≈ 0.0181 µM)
Neisseria mucosa/macacae, isolate id (sample isolate): Co000779_1, population: general population, antibiotic use in previous 6 months: No | 0.032 (≈ 0.0966 µM)
Neisseria mucosa/macacae, isolate id (sample isolate): Co000783_3, population: general population, antibiotic use in previous 6 months: No | 0.012 (≈ 0.0362 µM)
Neisseria mucosa/macacae, isolate id (sample isolate): Co000783_6, population: general population, antibiotic use in previous 6 months: No | 0.023 (≈ 0.0694 µM)
Neisseria mucosa/macacae, isolate id (sample isolate): Co000787_3, population: general population, antibiotic use in previous 6 months: No | 0.064 (≈ 0.193 µM)
Neisseria mucosa/macacae, isolate id (sample isolate): Co000788_1, population: general population, antibiotic use in previous 6 months: No | 0.012 (≈ 0.0362 µM)
Neisseria mucosa/macacae, isolate id (sample isolate): Co000788_4, population: general population, antibiotic use in previous 6 months: No | 0.012 (≈ 0.0362 µM)
[1], isolate id (sample isolate): 19041762_1, population: MSM, antibiotic use in previous 6 months: Yes | 1.5 (≈ 4.53 µM)
[1], isolate id (sample isolate): 19041762_1.1, population: MSM, antibiotic use in previous 6 months: Yes | 3 (≈ 9.05 µM)
[1], isolate id (sample isolate): 19041780_1, population: MSM, antibiotic use in previous 6 months: Yes | 0.25 (≈ 0.754 µM)
[1], isolate id (sample isolate): 19042150_1, population: MSM, antibiotic use in previous 6 months: Yes | 0.25 (≈ 0.754 µM)
[1], isolate id (sample isolate): 19042150_3, population: MSM, antibiotic use in previous 6 months: Yes | 0.032 (≈ 0.0966 µM)
[1], isolate id (sample isolate): 19042756_1, population: MSM, antibiotic use in previous 6 months: Yes | 1 (≈ 3.02 µM)
[1], isolate id (sample isolate): 19042756_2, population: MSM, antibiotic use in previous 6 months: Yes | 0.75 (≈ 2.26 µM)
[1], isolate id (sample isolate): 19043201_1.1, population: MSM, antibiotic use in previous 6 months: No | 0.25 (≈ 0.754 µM)
[1], isolate id (sample isolate): 19043201_2.1, population: MSM, antibiotic use in previous 6 months: No | 0.38 (≈ 1.15 µM)
[1], isolate id (sample isolate): 19043201_3, population: MSM, antibiotic use in previous 6 months: No | 0.25 (≈ 0.754 µM)
[1], isolate id (sample isolate): 19043274_3, population: MSM, antibiotic use in previous 6 months: Yes | 0.25 (≈ 0.754 µM)
[1], isolate id (sample isolate): 19050474_1, population: MSM, antibiotic use in previous 6 months: No | 0.25 (≈ 0.754 µM)
[1], isolate id (sample isolate): 19050514_1, population: MSM, antibiotic use in previous 6 months: Yes | 0.5 (≈ 1.51 µM)
[1], isolate id (sample isolate): 19050949_1, population: MSM, antibiotic use in previous 6 months: No | 0.016 (≈ 0.0483 µM)
[1], isolate id (sample isolate): 19050949_2, population: MSM, antibiotic use in previous 6 months: No | 0.38 (≈ 1.15 µM)
[1], isolate id (sample isolate): 19050949_2.1, population: MSM, antibiotic use in previous 6 months: No | 0.38 (≈ 1.15 µM)
[1], isolate id (sample isolate): 19051904_2, population: MSM, antibiotic use in previous 6 months: Yes | 0.38 (≈ 1.15 µM)
[1], isolate id (sample isolate): 19051904_3, population: MSM, antibiotic use in previous 6 months: Yes | 0.38 (≈ 1.15 µM)
[1], isolate id (sample isolate): 19052394_1, population: MSM, antibiotic use in previous 6 months: Yes | 0.19 (≈ 0.573 µM)
[1], isolate id (sample isolate): 19052394_1.1, population: MSM, antibiotic use in previous 6 months: Yes | 0.19 (≈ 0.573 µM)
[1], isolate id (sample isolate): 19060089_1, population: MSM, antibiotic use in previous 6 months: Yes | 0.38 (≈ 1.15 µM)
[1], isolate id (sample isolate): 19062994_1, population: MSM, antibiotic use in previous 6 months: Yes | 0.016 (≈ 0.0483 µM)
[1], isolate id (sample isolate): Co000761_2, population: general population, antibiotic use in previous 6 months: No | 0.012 (≈ 0.0362 µM)
[1], isolate id (sample isolate): Co000761_3, population: general population, antibiotic use in previous 6 months: No | 0.75 (≈ 2.26 µM)
[1], isolate id (sample isolate): Co000761_5, population: general population, antibiotic use in previous 6 months: No | 0.38 (≈ 1.15 µM)
[1], isolate id (sample isolate): Co000761_6, population: general population, antibiotic use in previous 6 months: No | 0.008 (≈ 0.0241 µM)
[1], isolate id (sample isolate): Co000762_3, population: general population, antibiotic use in previous 6 months: No | 0.016 (≈ 0.0483 µM)
[1], isolate id (sample isolate): Co000762_4, population: general population, antibiotic use in previous 6 months: No | 0.016 (≈ 0.0483 µM)
[1], isolate id (sample isolate): Co000763_2, population: general population, antibiotic use in previous 6 months: No | 0.008 (≈ 0.0241 µM)
[1], isolate id (sample isolate): Co000764_1, population: general population, antibiotic use in previous 6 months: No | 0.032 (≈ 0.0966 µM)
[1], isolate id (sample isolate): Co000764_2, population: general population, antibiotic use in previous 6 months: No | 0.047 (≈ 0.142 µM)
[1], isolate id (sample isolate): Co000765_2, population: general population, antibiotic use in previous 6 months: No | 0.023 (≈ 0.0694 µM)
[1], isolate id (sample isolate): Co000765_3, population: general population, antibiotic use in previous 6 months: No | 0.016 (≈ 0.0483 µM)
[1], isolate id (sample isolate): Co000765_4, population: general population, antibiotic use in previous 6 months: No | 0.012 (≈ 0.0362 µM)
[1], isolate id (sample isolate): Co000766_1, population: general population, antibiotic use in previous 6 months: No | 0.047 (≈ 0.142 µM)
[1], isolate id (sample isolate): Co000766_3, population: general population, antibiotic use in previous 6 months: No | 0.008 (≈ 0.0241 µM)
